The Kinase Knowledgebase extract (Sharma et al. 2016)
pIC50: −log10 of the molar value. Where “and” joins values, the source holds several entries; their conditions need not be identical. Equal entries are not always repeated.

Tests used:
CDK2 = CDK2 (UniProt P24941); experiment: Enzyme Assay
EGFR [1] = target: EGFR (UniProt P00533)
EGFR [2] = target: EGFR (UniProt P00533); remark: listed apart in the source
EGFR [3] = target: EGFR (UniProt P00533); remark: listed apart in the source
EGFR (mouse) = EGFR (mouse) (UniProt P00533); settings: nih3t3

Sequence of EGFR (P00533 whole entry, looked up): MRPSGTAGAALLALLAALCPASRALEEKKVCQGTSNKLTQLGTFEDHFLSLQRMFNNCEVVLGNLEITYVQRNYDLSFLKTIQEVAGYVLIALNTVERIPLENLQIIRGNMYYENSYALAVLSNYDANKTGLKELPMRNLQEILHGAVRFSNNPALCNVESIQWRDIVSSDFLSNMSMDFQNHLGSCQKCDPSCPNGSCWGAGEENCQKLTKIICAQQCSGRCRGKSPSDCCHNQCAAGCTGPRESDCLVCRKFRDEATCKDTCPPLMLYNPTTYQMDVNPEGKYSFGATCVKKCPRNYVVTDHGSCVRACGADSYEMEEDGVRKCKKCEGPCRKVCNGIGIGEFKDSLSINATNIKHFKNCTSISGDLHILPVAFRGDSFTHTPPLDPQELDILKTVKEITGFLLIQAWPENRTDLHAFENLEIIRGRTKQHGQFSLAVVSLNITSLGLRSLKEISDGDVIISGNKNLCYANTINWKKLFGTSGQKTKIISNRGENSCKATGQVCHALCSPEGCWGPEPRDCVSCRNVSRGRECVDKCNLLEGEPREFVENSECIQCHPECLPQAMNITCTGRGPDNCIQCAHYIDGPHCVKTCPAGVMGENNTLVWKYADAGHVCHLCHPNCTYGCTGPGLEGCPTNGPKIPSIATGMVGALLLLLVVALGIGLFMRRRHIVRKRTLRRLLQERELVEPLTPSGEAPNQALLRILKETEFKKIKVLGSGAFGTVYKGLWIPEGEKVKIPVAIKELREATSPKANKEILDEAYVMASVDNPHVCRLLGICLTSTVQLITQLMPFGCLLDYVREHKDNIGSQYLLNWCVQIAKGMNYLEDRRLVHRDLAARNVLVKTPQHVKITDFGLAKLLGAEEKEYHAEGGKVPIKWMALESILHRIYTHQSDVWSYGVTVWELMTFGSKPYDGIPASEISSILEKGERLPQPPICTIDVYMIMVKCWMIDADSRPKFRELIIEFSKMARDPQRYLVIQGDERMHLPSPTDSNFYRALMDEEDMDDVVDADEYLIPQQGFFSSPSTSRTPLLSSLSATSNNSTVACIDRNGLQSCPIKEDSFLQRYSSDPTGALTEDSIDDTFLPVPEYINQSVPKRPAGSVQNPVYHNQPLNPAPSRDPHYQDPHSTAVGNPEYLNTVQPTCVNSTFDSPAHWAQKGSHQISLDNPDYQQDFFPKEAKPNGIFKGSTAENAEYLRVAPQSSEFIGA

| Compound | pIC50 (CDK2) | pIC50 (EGFR [1]) | pIC50 (EGFR [2]) | pIC50 (EGFR [3]) | pIC50 (EGFR (mouse)) |
| --- | --- | --- | --- | --- | --- |
| O=C1Nc2ccc([N+](=O)[O-])cc2/C1=C\c1c[nH]cn1 | > 6.11 | – | – | – | – |
| COc1ccc(-c2ccc3c(c2)NC(=O)/C3=C\c2cnc[nH]2)cc1 | – | < 4.30 | < 4.00 | < 4.00 | – |
| CCn1c2ccccc2c2cc(NC(=O)c3cc(C(C)(C)C)nn3Cc3ccccc3)ccc21 | – | < 4.30 | – | – | – |
| O=C1Nc2ccccc2/C1=C\c1c[nH]cn1 | > 6.11 | – | – | – | – |
| COc1cc2c(cc1OC)/C(=C\c1c[nH]cn1)C(=O)N2 | 5.62 | – | – | – | – |
| CC(C)(C)c1cc(C(=O)Nc2cc3ccccc3cn2)n(Cc2ccccc2)n1 | – | < 4.00 | – | – | – |
| COc1ccccc1-c1ccc2c(c1)NC(=O)/C2=C\c1[nH]c2c(c1CCC(=O)O)CCCC2 | – | – | < 4.00 | < 4.00 | – |
| CC(C)(C)c1cc(C(=O)Nc2ccc(O)c(-c3cccc(-c4ccccc4)c3)c2)n(Cc2ccccc2)n1 | – | < 4.30 | – | – | – |
| Cc1ccc(Cn2nc(C)cc2C(=O)Nc2ccc(C(F)(F)F)cc2)cc1 | – | 5.15 and 5.01 | – | – | – |
| Nc1ccc2c(c1)/C(=C\c1c[nH]cn1)C(=O)N2 | > 6.11 | – | – | – | – |
| CC(C)(C)c1cc(C(=O)Nc2ccc3c(c2)OCO3)n(Cc2ccccc2)n1 | – | 4.30 | – | – | – |
| COc1cccc(-c2ccc3c(c2)NC(=O)/C3=C\c2[nH]c3c(c2C)CCCC3)c1 | – | < 4.30 | < 4.00 | < 4.00 | – |
| CC(C)(C)c1cc(C(=O)Nc2cccc3c2C(=O)c2ccccc2-3)n(Cc2ccccc2)n1 | – | < 4.30 | – | – | – |
| O=C1Nc2ccc(F)cc2/C1=C\c1c[nH]cn1 | 5.11 | – | – | – | – |
| CC(=O)Nc1ccc2c(c1)C(=O)c1cc(NC(=O)c3cc(C(C)(C)C)nn3Cc3ccccc3)ccc1-2 | – | 5.36 | – | – | – |
| COc1cccc(-c2ccc3c(c2)NC(=O)/C3=C\c2ccc(N3CCN(C=O)CC3)cc2)c1 | – | < 4.30 | < 4.00 | < 4.00 | – |
| COc1cccc(-c2ccc3c(c2)NC(=O)/C3=C\c2cc(C(C)C)c(OC)c(C(C)C)c2)c1 | – | 4.86 | < 4.00 | < 4.00 | – |
| COc1ccc(-c2ccc3c(c2)NC(=O)/C3=C\c2cc3c([nH]2)CCCC3)cc1 | – | < 4.30 | < 4.00 | < 4.00 | – |
| CC(C)(C)c1cc(C(=O)Nc2ccc3oc(=O)c4ccccc4c3c2)n(Cc2ccccc2)n1 | – | 4.37 | – | – | – |
| CC(C)(C)c1cc(C(=O)Nc2ccc(C(F)(F)F)cn2)n(Cc2ccccc2)n1 | – | 4.33 | – | – | – |
| COc1ccc(-c2ccccc2)cc1NC(=O)c1cc(C(C)(C)C)nn1Cc1ccccc1 | – | < 4.30 | – | – | – |
| CC(C)(C)c1cc(C(=O)Nc2cnc3ccccc3c2)n(Cc2ccccc2)n1 | – | 4.99 | – | – | – |
| COc1cccc(-c2ccc3c(c2)NC(=O)/C3=C\c2[nH]c3c(c2CCC(=O)O)CCCC3)c1 | – | 4.43 | 4.94 | < 4.00 | – |
| COc1c(C(C)C)cc(/C=C2\C(=O)Nc3cc(-c4ccccc4)ccc32)cc1C(C)C | – | – | < 4.00 | < 4.00 | – |

| Compound | pIC50 (CDK2) | pIC50 (EGFR [1]) | pIC50 (EGFR [2]) | pIC50 (EGFR [3]) | pIC50 (EGFR (mouse)) |
| --- | --- | --- | --- | --- | --- |
| Cc1cc(/C=C2/C(=O)Nc3ccccc32)c(C)c2c1[nH]c1ccccc12 | – | 5.15 | – | – | < 4.00 |
| COc1ccccc1-c1ccc2c(c1)NC(=O)/C2=C\c1[nH]c(C)cc1C | – | – | < 4.00 | < 4.00 | – |
| COc1cccc(-c2ccc3c(c2)NC(=O)/C3=C\c2cc3c([nH]2)CCCC3)c1 | – | 4.50 and < 4.30 | – | < 4.00 | – |
| O=C1Nc2cc(-c3ccccc3)ccc2/C1=C/c1cnc[nH]1 | – | < 4.30 | < 4.00 | < 4.00 | – |
| CCOc1cccc(-c2ccc3c(c2)NC(=O)/C3=C\c2cc(C(C)C)c(OC)c(C(C)C)c2)c1 | – | 4.71 | < 4.00 | < 4.00 | – |
| COc1cccc(-c2ccc3c(c2)NC(=O)/C3=C\c2cnc[nH]2)c1 | – | < 4.30 and 4.56 | < 4.00 | < 4.00 | – |
| Cc1cccnc1NC(=O)c1cc(C(C)(C)C)nn1Cc1ccccc1 | – | 4.27 | – | – | – |
| CCc1cc(CC)c(/C=C2\C(=O)Nc3cc(-c4ccc(OC)cc4)ccc32)[nH]1 | – | < 4.30 | < 4.00 | < 4.00 | – |
| COc1ccc(NC(=O)c2cc(C(C)(C)C)nn2Cc2ccccc2)cc1-c1ccccc1 | – | < 4.30 | – | – | – |
| O=C(O)CCc1c(/C=C2\C(=O)Nc3cc(-c4ccccc4)ccc32)[nH]c2c1CCCC2 | – | – | < 4.00 | < 4.00 | – |
| CC(C)(C)c1cc(C(=O)Nc2ccc(C(F)(F)F)cc2)n(Cc2ccccc2)n1 | – | 4.81 | – | – | – |
| CC(C)(C)c1cc(C(=O)Nc2c(F)c(F)nc(F)c2F)n(Cc2ccccc2)n1 | – | 4.59 | – | – | – |
| CC(C)(C)c1cc(C(=O)Nc2cccc(-c3ccccc3)c2)n(Cc2ccccc2)n1 | – | < 4.30 | – | – | – |
| CC(C)(C)c1cc(C(=O)Nc2ccccc2C(F)(F)F)n(Cc2ccccc2)n1 | – | 4.33 | – | – | – |
| COc1ccc(NC(=O)c2cc(C(C)(C)C)nn2Cc2ccccc2)c(OC)n1 | – | < 4.00 | – | – | – |
| CCOc1cccc(-c2ccc3c(c2)NC(=O)/C3=C\c2[nH]c(CC)cc2CC)c1 | – | < 4.30 | < 4.00 | < 4.00 | – |
| Cc1cnc2ccccc2c1NC(=O)c1cc(C(C)(C)C)nn1Cc1ccccc1 | – | 4.67 | – | – | – |
| O=C1Nc2ccc(Cl)cc2/C1=C\c1c[nH]cn1 | > 6.11 | – | – | – | – |
| CC(C)(C)c1cc(C(=O)Nc2ccncc2)n(Cc2ccccc2)n1 | – | 4.55 | – | – | – |
| COc1ccc(-c2ccc3c(c2)NC(=O)/C3=C\c2ccc(C)s2)cc1 | – | < 4.30 | < 4.00 | < 4.00 | – |
| Cc1ccc(Cn2nc(C)cc2C(=O)Nc2cccc(C(F)(F)F)c2)cc1 | – | 5.20 and 5.01 | – | – | – |
| CC(C)(C)c1cc(C(=O)Nc2ccccn2)n(Cc2ccccc2)n1 | – | < 4.00 | – | – | – |
| Cc1ccnc(NC(=O)c2cc(C(C)(C)C)nn2Cc2ccccc2)c1 | – | 4.30 | – | – | – |
| CCOc1cccc(-c2ccc3c(c2)NC(=O)/C3=C\c2cc3c([nH]2)CCCC3)c1 | – | < 4.30 | < 4.00 | < 4.00 | – |

| Compound | pIC50 (CDK2) | pIC50 (EGFR [1]) | pIC50 (EGFR [2]) | pIC50 (EGFR [3]) | pIC50 (EGFR (mouse)) |
| --- | --- | --- | --- | --- | --- |
| CC(C)(C)c1cc(C(=O)Nc2cccc(C(F)(F)F)c2)n(Cc2ccccc2)n1 | – | 4.27 | – | – | – |
| COc1cccc(-c2cc(NC(=O)c3cc(C(C)(C)C)nn3Cc3ccccc3)ccc2OC)c1 | – | < 4.30 | – | – | – |
| CCOc1cccc(-c2ccc3c(c2)NC(=O)/C3=C\c2cnc[nH]2)c1 | – | < 4.30 | < 4.00 | < 4.00 | – |
| Cc1cc(C)c(/C=C2\C(=O)Nc3cc(-c4ccccc4)ccc32)[nH]1 | – | < 4.30 | < 4.00 | < 4.00 | – |
| COc1ccccc1-c1ccc2c(c1)NC(=O)/C2=C\c1cnc[nH]1 | – | – | < 4.00 | < 4.00 | – |
| CCc1cc(CC)c(/C=C2\C(=O)Nc3cc(-c4cccc(OC)c4)ccc32)[nH]1 | – | < 4.30 and 4.51 | < 4.00 | < 4.00 | – |
| COc1cccc(-c2ccc3c(c2)NC(=O)/C3=C\c2[nH]c(C)cc2C)c1 | – | < 4.30 and 4.56 | < 4.00 | < 4.00 | – |
| COc1ccc(-c2ccc3c(c2)NC(=O)/C3=C\c2[nH]c3c(c2CCC(=O)O)CCCC3)cc1 | – | – | < 4.00 | < 4.00 | – |
| O=C1Nc2c(Br)cc(Cl)cc2/C1=C\c1c[nH]cn1 | 5.03 | – | – | – | – |
| COc1ccc(-c2ccc3c(c2)NC(=O)/C3=C\c2[nH]c(C)cc2C)cc1 | – | < 4.30 | < 4.00 | < 4.00 | – |
| CC(C)(C)c1cc(C(=O)c2nccc3ccccc23)n(Cc2ccccc2)n1 | – | 4.65 | – | – | – |
| Cc1cc(C)c2c(c1)NC(=O)/C2=C/c1c[nH]cn1 | > 6.11 | – | – | – | – |
| O=C1Nc2cc(-c3ccccc3)ccc2/C1=C/c1cc2c([nH]1)CCCC2 | – | < 4.30 | < 4.00 | < 4.00 | – |
| COc1ccccc1-c1ccc2c(c1)NC(=O)/C2=C\c1[nH]c2c(c1C)CCCC2 | – | < 4.30 | < 4.00 | < 4.00 | – |
| CCc1cc(CC)c(/C=C2\C(=O)Nc3cc(-c4ccccc4)ccc32)[nH]1 | – | < 4.30 | < 4.00 | < 4.00 | – |
| COc1ccc(-c2ccc3c(c2)NC(=O)/C3=C\c2[nH]c3c(c2C)CCCC3)cc1 | – | < 4.30 | < 4.00 | < 4.00 | – |
| CCc1cc(CC)c(/C=C2\C(=O)Nc3cc(-c4ccccc4OC)ccc32)[nH]1 | – | – | < 4.00 | < 4.00 | – |
| CCOc1cccc(-c2ccc3c(c2)NC(=O)/C3=C\c2[nH]c(C)cc2C)c1 | – | < 4.30 | < 4.00 | < 4.00 | – |
| Cc1cccc2c1/C(=C\c1c[nH]cn1)C(=O)N2 | 5.96 | – | – | – | – |
| Cc1ccc(/C=C2\C(=O)Nc3cc(-c4ccccc4)ccc32)s1 | – | < 4.30 | < 4.00 | < 4.00 | – |
| Cc1cc(C)c(NC(=O)c2cc(C(C)(C)C)nn2Cc2ccccc2)cn1 | – | 4.16 | – | – | – |
| COc1ccccc1-c1ccc2c(c1)NC(=O)/C2=C\c1cc2c([nH]1)CCCC2 | – | 4.47 | < 4.00 | < 4.00 | – |
| CC(C)(C)c1cc(C(=O)Nc2cccnc2)n(Cc2ccccc2)n1 | – | < 4.00 | – | – | – |
| CCOc1cccc(-c2ccc3c(c2)NC(=O)/C3=C\c2ccc(C)s2)c1 | – | < 4.30 | < 4.00 | < 4.00 | – |
